These results are taken from patent US20260295053A1, “COMPOUNDS FOR DEGRADATION AND INHIBITION OF KRAS (G12D) PROTEIN” (Shenzhen Ionova Life Science Co., Ltd., priority 2023, published 2026).

The target in one assay is T1, KRAS (G12D) (Homo sapiens, UniProt P01116, G12D).
T1 construct: in-cell western with KRAS G12D antibody after 24 h
Nature of the assay: KRAS (G12D) cellular degradation assay in AsPC-1 cells. Format: cell-based. The note with it: 24 hours, antibody fluorescence (Odyssey CLX), DC50 half-maximal degradation concentration. The essentials: (§1)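 AsPC-1 cells were seeded at 22,000/well for degradation and 3,500/well for proliferation. Compounds in 1:3 dilutions ([…] to 1.5 nM final) ran 24 h for degradation, read by in-cell immunofluorescence of KRAS G12D normalised to β-actin, and 6 days for proliferation (CellTiter Glo luminescence). DC50/IC50 came from dose-response fits.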

A further assay relates to AsPC-1 cells. Nature of the assay: AsPC-1 cell proliferation assay (CellTiter Glo). Format: cell-based. As to conditions: 6 days. A digest of the protocol: as §1

The structures appear in SMILES notation.

T1 sequence (P01116 1-188 isoform P01116-2 G12D): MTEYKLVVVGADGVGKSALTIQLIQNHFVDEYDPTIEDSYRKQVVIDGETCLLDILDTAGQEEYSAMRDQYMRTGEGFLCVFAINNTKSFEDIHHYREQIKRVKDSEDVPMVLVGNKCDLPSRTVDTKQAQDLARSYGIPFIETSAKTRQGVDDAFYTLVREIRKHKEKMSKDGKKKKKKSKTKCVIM

As for `CCn1nccc1-c1ccc([C@@H](NC(=O)[C@@H]2C[C@@H](O)CN2C(=O)[C@H](C(C)C)n2cc(-c3ccc(COc4c(-c5c(C)c(F)cc6[nH]ncc56)c(C5CC5)cc5c(N(C)[C@H]6CCNC6)nc(OC[C@H](C)OC)nc45)cc3)nn2)[C@H](C)O)c2c1CC2` [Example 149, (2S,4R)-1-((2S)-2-(4-(4-(((6-cyclopropyl-7-(6-fluoro-5-methyl-1H-indazol-4-yl)-2-((S)-2-methoxypropoxy)-4-(methyl((S)-pyrrolidin-3-yl)amino)quinazolin-8-yl)oxy)methyl)phenyl)-1H-1,2,3-triazol-1-yl)-3-methylbutanoyl)-N-((1R,2S)-1-(5-(1-ethyl-1H-pyrazol-5-yl)bicyclo[4.2.0]octa-1(6),2,4-trien-2-yl)-2-hydroxypropyl)-4-hydroxypyrrolidine-2-carboxamide], the DC50 at KRAS (G12D) was < 10 nM. In the assay on AsPC-1 cells (Homo sapiens, ASPC1, 144 h), the 50% inhibitory concentration (IC50) was < 10 nM.

Regarding `Cc1ncsc1-c1ccc([C@@H](NC(=O)[C@@H]2C[C@@H](O)CN2C(=O)[C@H](C(C)C)n2cc(-c3ccc(COc4c(-c5c(C)c(F)cc6[nH]ncc56)c(C5CC5)cc5c(N6C[C@@H]7C[C@H]6CN7)nc(OC6CC7(COC7)C6)nc45)cc3)nn2)[C@@H](C)O)cc1` [Example 150, (2S,4R)-1-((2S)-2-(4-(4-(((2-((2-oxaspiro[3.3]heptan-6-yl)oxy)-4-((1S,4S)-2,5-diazabicyclo[2.2.1]heptan-2-yl)-6-cyclopropyl-7-(6-fluoro-5-methyl-1H-indazol-4-yl)quinazolin-8-yl)oxy)methyl)phenyl)-1H-1,2,3-triazol-1-yl)-3-methylbutanoyl)-4-hydroxy-N-((1R,2R)-2-hydroxy-1-(4-(4-methylthiazol-5-yl)phenyl)propyl)pyrrolidine-2-carboxamide], the DC50 on KRAS (G12D) was < 10 nM. The IC50 in the assay on AsPC-1 cells (Homo sapiens, ASPC1, 144 h) was < 10 nM.

In the case of `CCn1nccc1-c1ccc([C@@H](NC(=O)[C@@H]2C[C@@H](O)CN2C(=O)[C@H](C(C)C)n2cc(-c3ccc(COc4c(-c5c(C)c(F)cc6[nH]ncc56)c(C5CC5)cc5c(N6C[C@@H]7C[C@H]6CN7)nc(O[C@H]6CC[C@H](OC)C6)nc45)cc3)nn2)[C@H](C)O)cc1` [Example 151, (2S,4R)-1-((2S)-2-(4-(4-(((4-((1S,4S)-2,5-diazabicyclo[2.2.1]heptan-2-yl)-6-cyclopropyl-7-(6-fluoro-5-methyl-1H-indazol-4-yl)-2-(((1S,3S)-3-methoxycyclopentyl)oxy)quinazolin-8-yl)oxy)methyl)phenyl)-1H-1,2,3-triazol-1-yl)-3-methylbutanoyl)-N-((1R,2S)-1-(4-(1-ethyl-1H-pyrazol-5-yl)phenyl)-2-hydroxypropyl)-4-hydroxypyrrolidine-2-carboxamide], on KRAS (G12D), the DC50 was < 10 nM. Moreover, the IC50 in the assay with AsPC-1 cells (Homo sapiens, ASPC1, 144 h) is < 10 nM.

Consider `CCn1nccc1-c1ccc([C@H](CO)NC(=O)[C@@H]2C[C@@H](O)CN2C(=O)[C@H](C(C)C)n2cc(-c3ccc(COc4c(-c5c(C)c(F)cc6[nH]ncc56)c(C5CC5)cc5c(N6C[C@@H]7C[C@H]6CN7)nc(OC[C@H](C)OC)nc45)cc3)nn2)c2c1CC2` [Example 152, (2S,4R)-1-((2S)-2-(4-(4-(((4-((1S,4S)-2,5-diazabicyclo[2.2.1]heptan-2-yl)-6-cyclopropyl-7-(6-fluoro-5-methyl-1H-indazol-4-yl)-2-((S)-2-methoxypropoxy)quinazolin-8-yl)oxy)methyl)phenyl)-1H-1,2,3-triazol-1-yl)-3-methylbutanoyl)-N—((R)-1-(5-(1-ethyl-1H-pyrazol-5-yl)bicyclo[4.2.0]octa-1(6),2,4-trien-2-yl)-2-hydroxyethyl)-4-hydroxypyrrolidine-2-carboxamide], for which, at KRAS (G12D), the DC50 is < 10 nM. In addition, the IC50 in the assay on AsPC-1 cells (Homo sapiens, ASPC1, 144 h) was < 10 nM.

Turning to `CCn1nccc1-c1ccc([C@H](CO)NC(=O)[C@@H]2C[C@@H](O)CN2C(=O)[C@H](C(C)C)n2cc(-c3ccc(COc4c(-c5c(C)c(F)cc6[nH]ncc56)c(C5CC5)cc5c(N6CCNCC[C@H]6C)nc(OC[C@H](C)OC)nc45)cc3)nn2)cc1` [Example 154, (2S,4R)-1-((2S)-2-(4-(4-(((6-cyclopropyl-7-(6-fluoro-5-methyl-1H-indazol-4-yl)-2-((S)-2-methoxypropoxy)-4-((R)-7-methyl-1,4-diazepan-1-yl)quinazolin-8-yl)oxy)methyl)phenyl)-1H-1,2,3-triazol-1-yl)-3-methylbutanoyl)-N—((R)-1-(4-(1-ethyl-1H-pyrazol-5-yl)phenyl)-2-hydroxyethyl)-4-hydroxypyrrolidine-2-carboxamide], the DC50 on KRAS (G12D) is < 10 nM. Moreover, the IC50 in the assay with AsPC-1 cells (Homo sapiens, ASPC1, 144 h) is < 10 nM.

Take `CCn1nccc1-c1ccc([C@@H](NC(=O)[C@@H]2C[C@@H](O)CN2C(=O)[C@H](C(C)C)n2cc(-c3ccc(COc4c(-c5c(C)c(F)cc6[nH]ncc56)c(C5CC5)cc5c(N6CCCNCC6)nc(O[C@H]6C[C@H](OC)C6)nc45)cc3)nn2)[C@H](C)O)cc1` [Example 156, (2S,4R)-1-((2S)-2-(4-(4-(((6-cyclopropyl-4-(1,4-diazepan-1-yl)-7-(6-fluoro-5-methyl-1H-indazol-4-yl)-2-((1r,3r)-3-methoxycyclobutoxy)quinazolin-8-yl)oxy)methyl)phenyl)-1H-1,2,3-triazol-1-yl)-3-methylbutanoyl)-N-((1R,2S)-1-(4-(1-ethyl-1H-pyrazol-5-yl)phenyl)-2-hydroxypropyl)-4-hydroxypyrrolidine-2-carboxamide]: the DC50 at KRAS (G12D) is < 10 nM. The IC50 in the assay on AsPC-1 cells (Homo sapiens, ASPC1, 144 h) is < 10 nM.

Turning to `CO[C@@H](C)COc1nc(N2CCCNCC2)c2cc(C3CC3)c(-c3c(C)c(F)cc4[nH]ncc34)c(OCc3ccc(-c4cn([C@H](C(=O)N5C[C@H](O)C[C@H]5C(=O)N[C@H](c5ccc(-c6scnc6C)cc5)[C@H](C)O)C(C)C)nn4)cc3)c2n1` [Example 157, (2S,4R)-1-((2S)-2-(4-(4-(((6-cyclopropyl-4-(1,4-diazepan-1-yl)-7-(6-fluoro-5-methyl-1H-indazol-4-yl)-2-((S)-2-methoxypropoxy)quinazolin-8-yl)oxy)methyl)phenyl)-1H-1,2,3-triazol-1-yl)-3-methylbutanoyl)-4-hydroxy-N-((1R,2S)-2-hydroxy-1-(4-(4-methylthiazol-5-yl)phenyl)propyl)pyrrolidine-2-carboxamide], the DC50 at KRAS (G12D) is < 10 nM. In addition, in the assay with AsPC-1 cells (Homo sapiens, ASPC1, 144 h), the IC50 is < 10 nM.

Compound `CCn1nccc1-c1ccc([C@H](CO)NC(=O)[C@@H]2C[C@@H](O)CN2C(=O)[C@H](C(C)C)n2cc(-c3ccc(COc4c(-c5c(C)c(F)cc6[nH]ncc56)c(C5CC5)cc5c(N6CCC=CCC6)nc(OC[C@H](C)OC)nc45)cc3)nn2)cc1` [Example 158, (2S,4R)-1-((2S)-2-(4-(4-(((6-cyclopropyl-7-(6-fluoro-5-methyl-1H-indazol-4-yl)-2-((S)-2-methoxypropoxy)-4-(2,3,6,7-tetrahydro-1H-azepin-1-yl)quinazolin-8-yl)oxy)methyl)phenyl)-1H-1,2,3-triazol-1-yl)-3-methylbutanoyl)-N—((R)-1-(4-(1-ethyl-1H-pyrazol-5-yl)phenyl)-2-hydroxyethyl)-4-hydroxypyrrolidine-2-carboxamide] had a DC50 on KRAS (G12D) of 10 to 100 nM. The same compound registered an IC50 in the assay with AsPC-1 cells (Homo sapiens, ASPC1, 144 h) of 10 to 100 nM.

Consider `CO[C@@H](C)COc1nc(N(C)[C@H]2CCNC2)c2cc(C3CCC3)c(-c3c(C)c(F)cc4[nH]ncc34)c(OCc3ccc(-c4cn([C@H](C(=O)N5C[C@H](O)C[C@H]5C(=O)N[C@H](c5ccc(-c6scnc6C)cc5)[C@H](C)O)C(C)C)nn4)cc3)c2n1` [Example 159, (2S,4R)-1-((2S)-2-(4-(4-(((6-cyclobutyl-7-(6-fluoro-5-methyl-1H-indazol-4-yl)-2-((S)-2-methoxypropoxy)-4-(methyl((S)-pyrrolidin-3-yl)amino)quinazolin-8-yl)oxy)methyl)phenyl)-1H-1,2,3-triazol-1-yl)-3-methylbutanoyl)-4-hydroxy-N-((1R,2S)-2-hydroxy-1-(4-(4-methylthiazol-5-yl)phenyl)propyl)pyrrolidine-2-carboxamide], for which, on KRAS (G12D), the DC50 was < 10 nM. The IC50 in the assay with AsPC-1 cells is < 10 nM.

`CCn1nccc1-c1ccc([C@H](CO)NC(=O)[C@@H]2C[C@@H](O)CN2C(=O)[C@H](C(C)C)n2cc(-c3ccc(COc4c(-c5c(C)c(F)cc6[nH]ncc56)c(C5CC5)cc5c(N6C[C@@H]7C[C@H]6CN7)nc(O[C@H]6C[C@H](OC)C6)nc45)cc3)nn2)c2c1CC2` [Example 160, (2S,4R)-1-((2S)-2-(4-(4-(((4-((1S,4S)-2,5-diazabicyclo[2.2.1]heptan-2-yl)-6-cyclopropyl-7-(6-fluoro-5-methyl-1H-indazol-4-yl)-2-((1r,3S)-3-methoxycyclobutoxy)quinazolin-8-yl)oxy)methyl)phenyl)-1H-1,2,3-triazol-1-yl)-3-methylbutanoyl)-N—((R)-1-(5-(1-ethyl-1H-pyrazol-5-yl)bicyclo[4.2.0]octa-1(6),2,4-trien-2-yl)-2-hydroxyethyl)-4-hydroxypyrrolidine-2-carboxamide]: the DC50 at KRAS (G12D) was < 10 nM. For the same compound, the IC50 in the assay with AsPC-1 cells (Homo sapiens, ASPC1, 144 h) was < 10 nM.

At KRAS (G12D), `CCn1nccc1-c1ccc([C@H](CO)NC(=O)[C@@H]2C[C@@H](O)CN2C(=O)[C@H](C(C)C)n2cc(-c3ccc(COc4c(-c5c(C)c(F)cc6[nH]ncc56)c(C5CC5)cc5c(N6CCOCC(C)(O)C6)nc(OC[C@H](C)OC)nc45)cc3)nn2)cc1` (stereo partly drawn) [Example 161, (2S,4R)-1-((2S)-2-(4-(4-(((6-cyclopropyl-7-(6-fluoro-5-methyl-1H-indazol-4-yl)-4-(6-hydroxy-6-methyl-1,4-oxazepan-4-yl)-2-((S)-2-methoxypropoxy)quinazolin-8-yl)oxy)methyl)phenyl)-1H-1,2,3-triazol-1-yl)-3-methylbutanoyl)-N—((R)-1-(4-(1-ethyl-1H-pyrazol-5-yl)phenyl)-2-hydroxyethyl)-4-hydroxypyrrolidine-2-carboxamide] showed a DC50 of 10 to 100 nM. Also, the IC50 in the assay on AsPC-1 cells (Homo sapiens, ASPC1, 144 h) is < 10 nM.
